Source: publication PMC10458253, “Unraveling the In Vitro Toxicity Profile of Psychedelic 2C Phenethylamines and Their N-Benzylphenethylamine (NBOMe) Analogues” (Pharmaceuticals, 2023)
Counter-ions that a name gives are not always drawn.

What was measured:
[1] = PAMPA-BBB permeability assay
Source text: In the present study we used a Parallel Artificial Membrane Permeation Assay (PAMPA) with a membrane mimicking the BBB phospholipidic composition (PAMPA-BBB) to evaluate and predict passive, transcellular permeability of the mescaline-NBOMe, 25B-NBOMe and 25N-NBOMe drugs.
The PiON inc database software was used for data analysis.

[2] = pH 7.4; cited from earlier work
[3] = test system: differentiated SH-SY5Y cells; experiment: Intracellular ROS (DCFH-DA probe), differentiated SH-SY5Y; type: cell-based; conditions: positive control, 200 µM, 24 h, vs negative control cells
Description: Reactive oxygen species (ROS) production was evaluated using the 2′,7′-dichlorofluorescein diacetate (DCFH-DA) probe. In the cytoplasm, DCFH-DA is hydrolyzed producing 2′,7′-dichlorodihydrofluorescein (DCFH) that, in the presence of ROS, is easily oxidized to the highly fluorescent 2′,7′-dichlorofluorescein (DCF).
(§1) ROS production was evaluated by using the well-known membrane permeable fluorescent probe 2′,7′-dichlorofluorescein diacetate (DCFH-DA). Both cell lines were seeded in 96-well cell culture plates, and pre-incubated with 10 µM DCFH-DA, protected from light, at 37 °C, in a 5% CO2–95% air atmosphere. After 30 min, DCFH-DA was removed, and the cells were exposed to the drugs (0–500 µM for SH-SY5Y cells and 0–1000 µM for HepG2 cells), at 37 °C, in a 5% CO2–95% air atmosphere. Subsequently, after 24 h of exposure, the fluorescence was measured at 485 nm excitation and 530 nm emission wavelengths in a multi-well plate reader (PowerWaveX BioTek Instruments, Winooski, VT, USA). Additionally, tert-butyl hydroperoxide (200 µM, 24 h) was used as a positive control for ROS overproduction. The results were expressed as percentage of control cells. At least four independent experiments were performed, in triplicate.

HepG2 cells = experiment: Intracellular ROS (DCFH-DA probe), HepG2; type: cell-based; conditions: HepG2, positive control, 200 µM, 24 h, vs control cells (0 µM)
Description: as §1

Row | Compound | −Log Pe ± SD [1] | other results
1 | CC(C)NCC(O)COc1cccc2ccccc12 (stereo not drawn) [Propanolol. HCl, reference compound] | 4.6 ± 0.42 | –
2 | CC(=O)[C@H]1CC[C@H]2[C@@H]3CCC4=CC(=O)CC[C@]4(C)[C@H]3CC[C@]12C [Progesterone, reference compound] | 4.5 ± 0.44 | –
3 | CC(=O)Nc1ccccc1 [Acetanilide] | – | CHI (IAM) [2]: 11.57
4 | C=C[C@H]1C[N@@]2CC[C@H]1C[C@@H]2[C@@H](O)c1ccnc2ccc(OC)cc12 [Quinidine. HCl, reference compound] | 4.8 ± 0.39 | –
5 | CC(C)(C)OO [t-BHP, tert-butyl hydroperoxide] | – | ROS intracellular levels [3]: significant increase in ROS intracellular levels; ROS intracellular levels (HepG2 cells): significant increase in ROS levels
